Reference: patent US20260042731A1, “(2,4-DICHLOROPHENOXY)ACETIC ACID ANALOGS” (CORTEVA AGRISCIENCE LLC, priority 2022, published 2026)
Like-named read-outs stand apart in the source and are kept apart here.

What was measured:
[1] = test system: Amaranthus rudis (AMATA), tall water hemp; test: Postemergence herbicide evaluation, growth of Amaranthus rudis (AMATA); type: in vivo; settings: Amaranthus tuberculatus, post-emergence, percent reduction in plant size relative to untreated control, read-out: Ave. AMATA; for pest or weed control at 280 g/ha: 280 g ae/ha; for pest or weed control at 560 g/ha: 560 g ae/ha
[2] = test system: Ambrosia artemisiifolia (AMBEL), common ragweed; test: Postemergence herbicide evaluation, growth of Ambrosia artemisiifolia (AMBEL); type: in vivo; settings: Ambrosia artemisiifolia, post-emergence, percent reduction in plant size relative to untreated control, read-out: AVE. AMBEL; for pest or weed control at 280 g/ha: 280 g ae/ha; for pest or weed control at 560 g/ha: 560 g ae/ha
[3] = test system: Abutilon theophrasti (ABUTH), velvetleaf; test: Postemergence herbicide evaluation, growth of Abutilon theophrasti (ABUTH); type: in vivo; settings: Abutilon theophrasti, post-emergence, percent reduction in plant size relative to untreated control, read-out: AVE. ABUTH; for pest or weed control at 280 g/ha: 280 g ae/ha; for pest or weed control at 560 g/ha: 560 g ae/ha
[4] = test system: Chenopodium album (CHEAL), common lambsquarters; test: Postemergence herbicide evaluation, growth of Chenopodium album (CHEAL); type: in vivo; settings: Chenopodium album, post-emergence, percent reduction in plant size relative to untreated control, read-out: Ave. CHEAL; for pest or weed control at 280 g/ha: 280 g ae/ha; for pest or weed control at 560 g/ha: 560 g ae/ha
[5] = test system: glyphosate resistant Conyza canadensis (L.) (ERICA), horseweed; test: Postemergence herbicide evaluation, growth of Conyza canadensis (ERICA); type: in vivo; settings: Erigeron canadensis, post-emergence, percent reduction in plant size relative to untreated control, read-out: Ave. ERICA; for pest or weed control at 280 g/ha: 280 g ae/ha; for pest or weed control at 560 g/ha: 560 g ae/ha
[6] = Volatility of compounds measured by thermogravimetric analysis (TGA); type: physicochemical
[7] = test system: weeds (ABUTH, AMATA, AMBEL, CHEAL, ERICA); test: Postemergence herbicide evaluation, overall average % weed control across ABUTH, AMATA, AMBEL, CHEAL, ERICA; type: in vivo; settings: post-emergence, average over the five weeds, read-out: Overall Ave % Weed Control; for pest or weed control at 280 g/ha: 280 g ae/ha; for pest or weed control at 560 g/ha: 560 g ae/ha

Row | SMILES | pest or weed control at 280 g/ha ([1]; 168 h, 7 DAA) | pest or weed control at 560 g/ha ([1]; 168 h, 7 DAA) | pest or weed control at 280 g/ha ([1]; 336 h, 14 DAA) | pest or weed control at 560 g/ha ([1]; 336 h, 14 DAA) | pest or weed control at 280 g/ha ([1]; 504 h, 21 DAA) | pest or weed control at 560 g/ha ([1]; 504 h, 21 DAA) | pest or weed control at 280 g/ha ([2]; 168 h, 7 DAA) | pest or weed control at 560 g/ha ([2]; 168 h, 7 DAA) | pest or weed control at 280 g/ha ([2]; 336 h, 14 DAA) | pest or weed control at 560 g/ha ([2]; 336 h, 14 DAA) | pest or weed control at 280 g/ha ([2]; 504 h, 21 DAA) | pest or weed control at 560 g/ha ([2]; 504 h, 21 DAA) | pest or weed control at 280 g/ha ([3]; 168 h, 7 DAA) | pest or weed control at 560 g/ha ([3]; 168 h, 7 DAA) | pest or weed control at 280 g/ha ([3]; 336 h, 14 DAA) | pest or weed control at 560 g/ha ([3]; 336 h, 14 DAA) | pest or weed control at 280 g/ha ([3]; 504 h, 21 DAA) | pest or weed control at 560 g/ha ([3]; 504 h, 21 DAA) | pest or weed control at 280 g/ha ([4]; 168 h, 7 DAA) | pest or weed control at 560 g/ha ([4]; 168 h, 7 DAA) | further results
1 | CN(OC(=O)COc1ccc(Cl)cc1Cl)C(=O)c1ccccc1 [Compound A16, N-(2-(2,4-Dichlorophenoxy)acetoxy)-N-methylbenzamide] | 65% | 83% | 73% | 83% | 65% | 87% | 70% | 78% | 83% | 97% | 88% | 100% | 85% | 88% | 93% | 96% | 94% | 99% | 63% | 68% | pest or weed control at 280 g/ha ([4]; 336 h, 14 DAA): 70%; pest or weed control at 560 g/ha ([4]; 336 h, 14 DAA): 80%; pest or weed control at 280 g/ha ([4]; 504 h, 21 DAA): 68%; pest or weed control at 560 g/ha ([4]; 504 h, 21 DAA): 95%; pest or weed control at 280 g/ha ([5]; 168 h, 7 DAA): 68%; pest or weed control at 560 g/ha ([5]; 168 h, 7 DAA): 75%; pest or weed control at 280 g/ha ([5]; 336 h, 14 DAA): 85%; pest or weed control at 560 g/ha ([5]; 336 h, 14 DAA): 92%; pest or weed control at 280 g/ha ([5]; 504 h, 21 DAA): 93%; pest or weed control at 560 g/ha ([5]; 504 h, 21 DAA): 100%; TGA Data (rate of weight loss, volatility) [6]: 4.3 µg/min; pest or weed control at 280 g/ha ([7]; 168 h, 7 DAA): 70%; pest or weed control at 560 g/ha ([7]; 168 h, 7 DAA): 78%; pest or weed control at 280 g/ha ([7]; 336 h, 14 DAA): 81%; pest or weed control at 560 g/ha ([7]; 336 h, 14 DAA): 89%; pest or weed control at 280 g/ha ([7]; 504 h, 21 DAA): 81%; pest or weed control at 560 g/ha ([7]; 504 h, 21 DAA): 96%
2 | O=C(COc1ccc(Cl)cc1Cl)O/N=C/c1ccc(/C=N/OC(=O)COc2ccc(Cl)cc2Cl)cc1 [Compound B3, (1,1′)-4-(-((2-(2,4-Dichlorophenoxy)acetoxy)imino)methyl)benzaldehyde-O-(2-(2,4-dichlorophenoxy)acetyl) oxime] | 60% | 70% | 58% | 68% | 58% | 68% | 23% | 48% | 45% | 50% | 45% | 53% | 33% | 60% | 13% | 58% | 12% | 58% | 65% | 68% | pest or weed control at 280 g/ha ([4]; 336 h, 14 DAA): 68%; pest or weed control at 560 g/ha ([4]; 336 h, 14 DAA): 70%; pest or weed control at 280 g/ha ([4]; 504 h, 21 DAA): 68%; pest or weed control at 560 g/ha ([4]; 504 h, 21 DAA): 70%; pest or weed control at 280 g/ha ([5]; 168 h, 7 DAA): 55%; pest or weed control at 560 g/ha ([5]; 168 h, 7 DAA): 65%; pest or weed control at 280 g/ha ([5]; 336 h, 14 DAA): 78%; pest or weed control at 560 g/ha ([5]; 336 h, 14 DAA): 80%; pest or weed control at 280 g/ha ([5]; 504 h, 21 DAA): 85%; pest or weed control at 560 g/ha ([5]; 504 h, 21 DAA): 80%; TGA Data (rate of weight loss, volatility) [6]: 0.8 µg/min; pest or weed control at 280 g/ha ([7]; 168 h, 7 DAA): 47%; pest or weed control at 560 g/ha ([7]; 168 h, 7 DAA): 62%; pest or weed control at 280 g/ha ([7]; 336 h, 14 DAA): 52%; pest or weed control at 560 g/ha ([7]; 336 h, 14 DAA): 65%; pest or weed control at 280 g/ha ([7]; 504 h, 21 DAA): 53%; pest or weed control at 560 g/ha ([7]; 504 h, 21 DAA): 66%
